Molecules are shown by their SMILES. Structures can show the parent of a compound that is named as a salt.

Here are results for 4 molecules from article PMC10968448, “An In Silico and In Vitro Assessment of the Neurotoxicity of Mefloquine” (Biomedicines, 2024).

The subject of data set [1] is SH-SY5Y cells. Description: Mitochondrial membrane potential (MMP) assay, MitoTracker Green FM. The class given is cell-based, human. The following applies: 48 h exposure.
Data set [2] relates to SH-SY5Y cells. More on the design: method as in PMID 22465322. Particulars: 10 µM MQ, 24 h; cited from earlier work.
Another data set deals with KYSE150 cells. Also noted: method as in PMID 32850358. Particulars: 10 µM MQ, KYSE150 oesophageal squamous cell carcinoma cell line; cited from earlier work.
The test system of data set [3] is SH-SY5Y cells. Description: Cellular ATP bioluminescence assay (cellular bioenergetics). Format: cell-based, human. The following applies: for IC50: Homo sapiens.
Another data set deals with human (recombinant) AChE. More on the design: method as in PMID 16288931. Particulars: 10 µM MQ; cited from earlier work.
Data set [4] deals with AChE of electric eel origin. Also noted: method as in PMID 3878759. The following applies: proposed non-competitive inhibitor; cited from earlier work.
Data set [5] has as its target human AChE enzyme (recombinant) (Homo sapiens, UniProt P22303). Description: biochemical. The class given is biochemical.
The conditions of data set [6]: human, in vivo, cited from earlier work.
Data set [7] relates to SH-SY5Y cells. Description: LDH cytotoxicity assay (extracellular LDH). Format: cell-based, human. Particulars: for IC50: Homo sapiens.
Data set [8] has as its system SH-SY5Y cells. Description: MTT assay of cell metabolic activity/viability. Format: cell-based, human. The following applies: for increase of cell metabolic activity (MTT): 6 h, p < 0.0001; for IC50: Homo sapiens, SH-SY5Y cells, non-linear regression. (In general: Tetrazolium dyes change colour on reduction, which living cells bring about.)
In the next data set the target is human BuChE enzyme (Homo sapiens, UniProt P06276). Description: biochemical. The class given is biochemical.
Data set [9] has as its system SH-SY5Y cells. Description: Flow cytometric assessment of cell death, Annexin V-FITC/PI. The class given is cell-based, human.
Data set [10] has as its target 5-hydroxytryptamine-3 (5-HT3) (serotonin) receptors. More on the design: method as in PMID 17502851. The following applies: non-competitive inhibitor; cited from earlier work.
On the set-up of data set [11]: method as in PMID 21118921. The following applies: healthy male and female volunteers; cited from earlier work.
For data set [12], the system named is SH-SY5Y cells. Description: ROS generation, DCFDA assay. The class given is cell-based, human. Particulars: 10 mM NAC with MQ 0.1–10 µM, 3 h.
Details of data set [13]: method as in PMID 32639233. The following applies: overdose; cited from earlier work.
The mark [14] stands for this setting: SH-SY5Y cells, 6 h exposure, non-linear regression.
Where [15] appears, read: SH-SY5Y cells, 24 h exposure, non-linear regression.
Setting [16] is: SH-SY5Y cells, 48 h exposure, non-linear regression.

human BuChE enzyme, sequence (P06276 29-602): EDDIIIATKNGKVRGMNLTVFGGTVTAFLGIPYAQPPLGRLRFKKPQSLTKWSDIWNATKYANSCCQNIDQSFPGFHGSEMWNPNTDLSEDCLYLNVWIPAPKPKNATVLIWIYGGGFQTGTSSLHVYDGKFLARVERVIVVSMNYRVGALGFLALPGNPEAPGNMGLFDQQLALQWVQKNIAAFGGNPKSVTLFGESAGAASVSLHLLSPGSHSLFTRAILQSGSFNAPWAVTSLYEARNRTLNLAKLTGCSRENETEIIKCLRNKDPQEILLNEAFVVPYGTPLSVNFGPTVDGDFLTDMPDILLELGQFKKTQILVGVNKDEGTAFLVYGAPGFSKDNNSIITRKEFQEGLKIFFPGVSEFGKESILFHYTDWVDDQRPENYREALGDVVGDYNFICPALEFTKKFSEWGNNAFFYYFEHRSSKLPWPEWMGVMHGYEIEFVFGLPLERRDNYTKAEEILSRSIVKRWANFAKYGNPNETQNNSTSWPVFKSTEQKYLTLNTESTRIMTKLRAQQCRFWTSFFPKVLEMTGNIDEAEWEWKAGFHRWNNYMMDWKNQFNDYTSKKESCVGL
human AChE enzyme (recombinant), sequence (P22303 32-614): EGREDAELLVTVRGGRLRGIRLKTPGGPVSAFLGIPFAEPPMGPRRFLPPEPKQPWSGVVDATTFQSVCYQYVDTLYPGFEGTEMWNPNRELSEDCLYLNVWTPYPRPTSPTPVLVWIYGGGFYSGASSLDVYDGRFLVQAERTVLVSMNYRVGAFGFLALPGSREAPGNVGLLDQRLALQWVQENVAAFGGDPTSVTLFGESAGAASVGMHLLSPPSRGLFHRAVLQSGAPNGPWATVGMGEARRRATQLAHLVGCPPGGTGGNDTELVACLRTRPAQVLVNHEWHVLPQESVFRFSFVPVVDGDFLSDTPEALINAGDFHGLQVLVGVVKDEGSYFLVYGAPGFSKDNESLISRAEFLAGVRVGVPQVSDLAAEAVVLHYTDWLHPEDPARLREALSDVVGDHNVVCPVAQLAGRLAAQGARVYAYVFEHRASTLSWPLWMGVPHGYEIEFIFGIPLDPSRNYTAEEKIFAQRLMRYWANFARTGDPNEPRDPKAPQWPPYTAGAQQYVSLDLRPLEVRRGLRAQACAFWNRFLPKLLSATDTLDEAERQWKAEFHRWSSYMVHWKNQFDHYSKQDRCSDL

The term IC50 denotes the concentration that inhibits the measured activity by half. By inhibition is commonly meant the relative decrease from the control value, in per cent. On to `O[C@H](c1cc(C(F)(F)F)nc2c(C(F)(F)F)cccc12)[C@@H]1CCCCN1` (racemic) [MQ, (R*,S*)-(+/−)-α-2-Piperidyl-2,8-bis(trifluoromethyl)quinoline-4-methanol monohydrochloride], for which the “concentration at which the MMP is significantly altered” value in the data set with SH-SY5Y cells [1] was 10 µM. The “reduction of cell viability (MTT)” value in the data set with SH-SY5Y cells [2] is on record as “approximately 20%”. In addition, the “effect on cell number” value in the data set with KYSE150 cells is reported as “reduces the cell number”. Further, the “concentration from which cellular ATP is significantly reduced” value with SH-SY5Y cells [3] (6 h exposure) is at least 1 µM; in the data set on SH-SY5Y cells [3] (48 h exposure) it was at least 0.1 µM. The IC50 is around 6 µM in the data set on SH-SY5Y cells [3] (SH-SY5Y, 24 h exposure); 10.2 µM with SH-SY5Y cells [3] (setting [14]); 4.73 µM in the data set with SH-SY5Y cells [3] (setting [15]); 3.19 µM in the data set with SH-SY5Y cells [3] (setting [16]); around 16 µM in the data set with SH-SY5Y cells [7] (SH-SY5Y, 24 h exposure); 26.2 µM with SH-SY5Y cells [7] (setting [14]). For the same molecule, the IC50 in the data set with SH-SY5Y cells [7] (setting [15]) is 16.2 µM; in the data set with SH-SY5Y cells [7] (setting [16]), 11.7 µM; in the data set with SH-SY5Y cells [8] (6 h exposure) it was 67.1 µM; in the data set on SH-SY5Y cells [8] (24 h exposure), 23.9 µM; in the data set with SH-SY5Y cells [8] (48 h exposure) it was 14.2 µM; in data set [10], around 10 µM. Moreover, in the data set on human (recombinant) AChE, the “inhibition of human (recombinant) AChE” value is recorded as below 10%. In addition, the “inhibition of electric eel AChE” value in [4] is listed as “weak inhibitor”. Also, the inhibition at 1 µM in data set [5] (1 µM MQ) turned out to be 9.8%. Also, the inhibition at 10 µM in data set [5] (10 µM MQ, significant) is 20.5%. The “concentration from which AChE activity is significantly reduced” value in [5] (MQ 1–100 µM assayed) is at least 10 µM. In addition, the “time of peak concentration in the blood” value in [6] (po) is 7 to 24 h. The terminal half-life in data set [6] was 14 to 15 days. Besides, the “extracellular LDH production” value with SH-SY5Y cells [7] (0.1 to 10 µM MQ, except 10 µM after 48 h) is reported as “no significant LDH production”. In the data set on SH-SY5Y cells [7] (25, 50 and 100 µM MQ), the “extracellular LDH levels” value is given as “dramatic increase”. Also, the figures for the “increase of cell metabolic activity (MTT)” value with SH-SY5Y cells [8] (1 µM MQ) and with SH-SY5Y cells [8] (10 µM MQ) were 27% and “approximately 29%”, respectively. In addition, the “reduction of cell metabolic activity (MTT)” value in the data set with SH-SY5Y cells [8] (10 µM MQ, 48 h, p = 0.024) is 13.6%. For the same molecule, the “threshold concentration for significant reduction in viability” value with SH-SY5Y cells [8] (48 h exposure) is given as around 10 µM. Besides, the “threshold concentration for toxicity to neuroblastoma cells (MTT)” value with SH-SY5Y cells [8] (all time points examined (6, 24, 48 h)) is recorded as at least 25 µM. This molecule had an inhibition at 100 µM against human BuChE enzyme (100 µM MQ) of 18%. Moreover, the “concentration from which BuChE activity is significantly reduced” value on human BuChE enzyme (MQ 1–100 µM assayed) is given as at least 25 µM. The “reduction in BuChE enzymatic activity” value at human BuChE enzyme (MQ exposures of between 1 and 25 µM) was “approximately 10%”. Moreover, the “concentration at which increase in apoptotic cells reached significance” value was 50 µM in the data set on SH-SY5Y cells [9] (6 h exposure) and 20 µM in the data set on SH-SY5Y cells [9] (24 h exposure).
Turning to `O[C@H](c1cc(C(F)(F)F)nc2c(C(F)(F)F)cccc12)[C@@H]1CCCCN1` (single isomer, unassigned) [+-MQ enantiomer], the “safety and tolerability compared with the racemate” value in [11] was “more favourable profile for mood and sleep”.
Consider `CC(=O)N[C@@H](CS)C(=O)O` [NAC, N-acetylcysteine], for which the “effect of antioxidant co-treatment on MQ-induced ROS production” value in the data set on SH-SY5Y cells [12] was “significantly inhibited MQ-induced ROS production”.
Turning to `CCN(CC)CCCC(C)Nc1ccnc2cc(Cl)ccc12` (stereo not drawn) [chloroquine], the “whole blood concentration associated with 1% mortality” value in data set [13] is 13.5 µM.
